The nature of data set [1]: ulcerogenic activity in rats (DU50). The note with it: rat, in vivo. The source says:
The ulcerogenic activity is expressed as DU50 in rats according to the method described by Dabrodie et al (Science, 170, 183; 1970).

The nature of data set [2]: tail compression test in mice (analgesic activity). In kind it is in vivo, mouse. Further details: unit not given here. The note with it: values marked * (I, II, III, VII) are statistically significant. The text has this: The tail compression test has been carried out in mice according to the method described by C. Bianchi (Brit. J. Pharmacol., 11, 104; 1956) by determining the time in seconds between the algic stimulation and the reaction of the mouse.

For data set [3] the following is noted: head DL50*: data statistically significant.
Data set [4] in a line: carrageenin-induced rat paw edema test (anti-inflammatory activity). Format: in vivo. The arrangement: unit not given here. The conditions noted are these: oral, one hour before 2% carrageenin, paw volume 5 hours after, values marked * (I, V, VI, VII, VIII) are statistically significant. The text has this:
For the determination of the anti-inflammatory activity, the carrageenin-induced rat paw edema test, as a modification of the method reported by C. A. Winth et al. (Proc. Soc. Exptl. Biol. Med., 111, 544; 1962) has been used. This method involves the reduction of the edema caused by the injection of a 2% carrageenin solution in the rat paw. The compounds under examination have been administered by oral route one hour before the injection of the edemigenic agent. The volume of the rat paw has been measured by a plethismometer before and 5 hours after the injection of the carrageenin.

Data set [5] in a line: in vivo. The conditions noted are these: mouse.
Data set [6] can be described thus: in vivo. The note with it: rat.
Setting [7] is: rats, head DU50*: data statistically significant, read-out: DU50 ulcerogenic activity.

Like-named read-outs stand apart in the source and are kept apart here.

As for `CC(C)Cc1ccc(C(C)C(=O)O)cc1` (stereo not drawn) [Compound I, 2-(4-isobutylphenyl)propionic acid, reference compound], in data set [1], the TD50 stood at 85.9 mg/kg. Moreover, the “Analgesic activity DE50” value in data set [2] stood at 5.28. For the same compound, in data set [3], the “DL50 acute toxicity, rat” value was 1480.00 mg/kg. Moreover, the “Anti-inflammatory activity DE50” value in data set [4] amounted to 59.14.
The term LD50 denotes the dose at which mortality reaches 50%. For the compound `CC(C)Cc1ccc(C(C)C(=O)OC2OC(=O)c3ccccc32)cc1` (stereo not drawn) [Compound IA, phthalidyl 2-(4-isobutylphenyl)propionate], the LD50 in “in vivo [5]” stood at 1540 mg/kg; in “in vivo [6]” it was 2180 mg/kg. In data set [1], this compound yielded a TD50 of 144 mg/kg. Also, the “Analgesic activity DE50” value in data set [2] was 2.08. Further, in data set [4], the “Anti-inflammatory activity DE50” value stood at 4.30.
Take `COc1ccc2cc([C@H](C)C(=O)O)ccc2c1` [Compound II, d-2-(6-methoxy-2-naphthyl)propionic acid, reference compound]: the TD50 in data set [1] (setting [7]) stood at 78.7 mg/kg. Moreover, the “Analgesic activity DE50” value in data set [2] was found to be 21.90. Also, the “Anti-inflammatory activity DE50” value in data set [4] is reported as 16.36.
In the case of `COc1ccc2cc(C(C)C(=O)OC3OC(=O)c4ccccc43)ccc2c1` (stereo not drawn) [Compound IIA, phthalidyl d-2-(6-methoxy-2-naphthyl)propionate], the LD50 in the data set “in vivo [5]” came out at 2140 mg/kg; in the data set “in vivo [6]”, 1060 mg/kg. In data set [1], the TD50 turned out to be 133 mg/kg. The “Analgesic activity DE50” value in data set [2] stood at 5.81. Further, in data set [4], the “Anti-inflammatory activity DE50” value was determined as 14.82.
With `CC(C(=O)O)c1cccc(C(=O)c2ccccc2)c1` (stereo not drawn) [Compound III, 2-(3-benzoylphenyl)propionic acid, reference compound], in data set [1] (setting [7]), the TD50 turned out to be 31.5 mg/kg. In addition, the “Analgesic activity DE50” value in data set [2] is recorded as 3.01. Further, the “Anti-inflammatory activity DE50” value in data set [4] was found to be 4.36.
For the compound `CC(C(=O)OC1OC(=O)c2ccccc21)c1cccc(C(=O)c2ccccc2)c1` (stereo not drawn) [Compound IIIA, phthalidyl 2-(3-benzoylphenyl)propionate], the LD50 in the data set “in vivo [5]” was found to be 514 mg/kg; in the data set “in vivo [6]”, 342 mg/kg. Also, the TD50 in data set [1] amounted to 76.7 mg/kg. Further, the “Analgesic activity DE50” value in data set [2] worked out at 1.34. In addition, the “Anti-inflammatory activity DE50” value in data set [4] was 5.15.
Take `CC(C(=O)O)c1ccc(N2Cc3ccccc3C2=O)cc1` (stereo not drawn) [Compound IV, 2-[4-(1-oxo-2-isoindolinyl)phenyl]propionic acid, reference compound]: the LD50 in the data set “in vivo [5]” was 536 mg/kg; in the data set “in vivo [6]” it was 62.3 mg/kg. Also, the TD50 in data set [1] was found to be 51.1 mg/kg. Moreover, the “Analgesic activity DE50” value in data set [2] is 2.58. In data set [4], the “Anti-inflammatory activity DE50” value was determined as 5.45.
On the same counts, the results for `CC(C(=O)OC1OC(=O)c2ccccc21)c1ccc(N2Cc3ccccc3C2=O)cc1` (stereo not drawn) [Compound IVA, phthalidyl 2-[4-(1-oxo-2-isoindolinyl)phenyl]propionate] are 987 mg/kg, 234 mg/kg, 116 mg/kg, 2.18 and 4.45.
`C=CCOc1ccc(CC(=O)O)cc1Cl` [Compound V, 4-allyloxy-3-chlorophenylacetic acid, reference compound] had a TD50 in data set [1] of 214 mg/kg. In data set [2], the “Analgesic activity DE50” value is recorded as 2.43. For the same compound, in data set [4], the “Anti-inflammatory activity DE50” value amounted to 1058.45.
As to `C=CCOc1ccc(CC(=O)OC2OC(=O)c3ccccc32)cc1Cl` (stereo not drawn) [Compound VA, phthalidyl 4-allyloxy-3-chlorophenylacetate], the 50% lethal dose (LD50) in “in vivo [5]” came to 2060 mg/kg; in “in vivo [6]”, 1770 mg/kg. In data set [1], this compound returned a TD50 of 380 mg/kg. Further, the “Analgesic activity DE50” value in data set [2] was 2.50. Besides, in data set [4], the “Anti-inflammatory activity DE50” value stood at 117.34.
For the compound `O=C(O)Cc1ccccc1Nc1c(Cl)cccc1Cl` [Compound VI, 2-(2,6-dichloroanilino)phenylacetic acid, reference compound], the TD50 in data set [1] (setting [7]) came to 13.1 mg/kg. The “Analgesic activity DE50” value in data set [2] stood at 3.81. For the same compound, the “Anti-inflammatory activity DE50” value in data set [4] stood at 189.54.
With `O=C(Cc1ccccc1Nc1c(Cl)cccc1Cl)OC1OC(=O)c2ccccc21` (stereo not drawn) [Compound VIA, phtalidyl 2-(2,6-dichloroanilino)phenylacetate], the LD50 worked out at 593 mg/kg in the data set “in vivo [5]” and 342 mg/kg in “in vivo [6]”. This compound registered a TD50 in data set [1] of 26.1 mg/kg. Further, the “Analgesic activity DE50” value in data set [2] was determined as 4.33. Besides, the “Anti-inflammatory activity DE50” value in data set [4] stood at 144.21.
As for `O=C(O)CCC(=O)c1ccc(-c2ccccc2)cc1` [Compound VII, 4-(4-biphenylyl)-4-oxobutyric acid, reference compound], the TD50 in data set [1] was 78.7 mg/kg. Further, the “Analgesic activity DE50” value in data set [2] came to 4.02. Also, in data set [4], the “Anti-inflammatory activity DE50” value was determined as 30.53.
Take `O=C(CCC(=O)c1ccc(-c2ccccc2)cc1)OC1OC(=O)c2ccccc21` (stereo not drawn) [Compound VIIA, phthalidyl 4-(4-biphenylyl)-4-oxobutyrate]: the LD50 in “in vivo [5]” was 1400 mg/kg; in “in vivo [6]” it was 1380 mg/kg. The same compound registered a TD50 in data set [1] of 146 mg/kg. The “Analgesic activity DE50” value in data set [2] was 2.95. Also, the “Anti-inflammatory activity DE50” value in data set [4] stood at 20.08.
For `O=C(O)Cc1ccc(-c2ccccc2)cc1` [Compound VIII, 4-biphenylylacetic acid, reference compound], in that order: 750 mg/kg, 635 mg/kg, 65.3 mg/kg, 3.07 and 21.79.
For `O=C(Cc1ccc(-c2ccccc2)cc1)OC1OC(=O)c2ccccc21` (stereo not drawn) [Compound VIIIA, phtalidyl 4-biphenylylacetate], in that order: 1410 mg/kg, 1170 mg/kg, 186 mg/kg, 2.78 and 13.28.

The values are drawn from patent US4529737A, “Analgesic and anti-inflammatory arylalkanoic acid phthalidyl esters and pharmaceutical compositions thereof” (priority 1979, dated 1985).
